{"source": "patent US20260335329A1", "about": "“PROTEIN PHOSPHATASE AGONIST AND USE” (priority 2022, published 2026)", "key": {"PC12 cells [1]": {"tested_on": "PC12 cells", "assay": "Survival rate of PC12 cells in the okadaic acid-induced injury model (CCK-8)", "assay_type": "cell-based", "method": "PC12 cells were detached and counted. A cell suspension was prepared at 8.0×10^4 cells/mL. 100 μL of the cell suspension was added to each well of a 96-well cell culture plate. The 96-well cell culture plate was placed in an incubator at 37° C. in 5% CO2 and cultured for 24 h. In an experimental group, the PC12 cells were pre-incubated for 2 h in a culture medium containing a test compound (the concentrations of the compound were 0.1 μmol/L, 0.5 μmol/L, 1 μmol/L, 5 μmol/L, and 10 μmol/L respectively, and the concentrations of the compound were set according to the concentrations in Table 5, Table 6, Table 7, and Table 8). […] In addition, a negative control group (no test compound or okadaic acid added) and a model group (only okadaic acid added) were set. The 96-well cell culture plate was placed in an incubator at 37° C. in 5% CO2 and cultured for 24 h. The cells in the 96-well cell culture plate were stained with 10 μL of CCK-8 in each well, and then cultured in the incubator for 1 h to 2 h. The 96-well cell culture plate was shaken gently for 10 min to mix uniformly and remove bubbles from the 96-well cell culture plate. The OD value of each well at 2=450 nm was read by using a microplate reader. A survival rate of cells was calculated.\nCalculation formula for the cell survival rate: […]\nThe effect of each compound on the survival rate of PC12 cells in the okadaic acid- and Aβ1-42-induced injury models was determined by the CCK-8 cell proliferation assay."}, "PP2A [2]": {"tested_on": "PP2A", "assay": "PP2A protein expression level in PC12 cells treated with Aβ (Western Blot)", "assay_type": "cell-based", "settings": "then Aβ 40 μmol/L; for PP2A (Western Blot signal) / PP2A protein expression level, β-actin(%): 2 h, 24 h", "method": "PC12 cells were cultured adherently. 0.1 μmol/L compound 2, 0.5 μmol/L compound 2, 1 μmol/L compound 2, 5 μmol/L compound 2, and 10 μmol/L compound 2 were added respectively. Then, the cells were incubated for 2 h. 40 μmol/L Aβ was then added. Then, the cells were incubated for 24 h. Total protein was extracted. PP2A activity was detected by the Western Blot assay."}, "PP2A [3]": {"tested_on": "PP2A", "assay": "Okadaic acid-induced PP2A protein expression level in PC12 cells (Western Blot)", "assay_type": "cell-based", "settings": "for PP2A (Western Blot signal) / PP2A(%): 2 h, then okadaic acid 40 nmol/L, 24 h", "method": "PC12 cells were inoculated into a T25 culture flask. After the cells were attached to the wall, compound 1 and compound 2 were added, and then the cells were incubated for 2 h. 40 nmol/L okadaic acid was then added. Then, the cells were incubated for 24 h. The protein was extracted. Based on the Western Blot assay, the PP2A protein expression level in PC12 cells was detected through SDS-PAGE and transfer, immunoblotting, color development, and G: BOX chemiXR5 imaging."}, "PC12 cells [4]": {"tested_on": "PC12 cells", "assay": "Survival rate of PC12 cells in the Aβ1-42-induced injury model (CCK-8)", "assay_type": "cell-based", "settings": "for OD value at 450 nm, Mean ± SD: 2 h, then Aβ1-42 40 μmol/L, 24 h, PC12 cells"}, "[5]": {"tested_on": "p-tauSer396 in SH-SY5Y cells", "assay": "Okadaic acid-induced phosphorylation of tau protein (p-tauSer396) in SH-SY5Y cells (Western Blot)", "assay_type": "cell-based, human", "settings": "for p-tauSer396 level (%): 24 h, then okadaic acid 40 nmol/L, SEM", "method": "SH-SY5Y cells were cultured in vitro for 24 h in culture media containing different concentrations of compound 2. Then, the cells were treated with 40 nmol/L okadaic acid for 24 h. The p-tauSer396 level of the SH-SY5Y cells was measured by the Western Blot assay."}, "[6]": {"settings": "compound 0.1 μmol/L, PC12 cells"}, "[7]": {"settings": "compound 0.5 μmol/L, PC12 cells"}}, "note": "Several values for one entry are separate records, joined by “and”; a condition that tells them apart may be missing. Equal values may be shown once.", "data": [{"smiles": "COCc1cc2oc(=N)c3ccccc3n2n1", "note": "[Compound 2, 2-(methoxymethyl)-5H-benzo[d]pyrazolo[5,1-b][1,3]oxazin-5-imine]", "values": [{"measurement": "viability at 0.1 µM", "setting": "PC12 cells [1]; Rattus norvegicus, PC-12, 24 h, compound 0.1 μmol/L, 2 h, then okadaic acid 50 nmol/L, 24 h, PC12 cells", "value": 49.2, "unit": "%"}, {"measurement": "viability at 0.5 µM", "setting": "PC12 cells [1]; Rattus norvegicus, PC-12, 24 h, compound 0.5 μmol/L, 2 h, then okadaic acid 50 nmol/L, 24 h, PC12 cells", "value": 51, "unit": "%"}, {"measurement": "viability at 1 µM", "setting": "PC12 cells [1]; Rattus norvegicus, PC-12, 24 h, compound 1 μmol/L, 2 h, then okadaic acid 50 nmol/L, 24 h, PC12 cells", "value": 59.4, "unit": "%"}, {"measurement": "viability at 5 µM", "setting": "PC12 cells [1]; Rattus norvegicus, PC-12, 24 h, compound 5 μmol/L, 2 h, then okadaic acid 50 nmol/L, 24 h, PC12 cells", "value": 70.8, "unit": "%"}, {"measurement": "viability at 10 µM", "setting": "PC12 cells [1]; Rattus norvegicus, PC-12, 24 h, compound 10 μmol/L, 2 h, then okadaic acid 50 nmol/L, 24 h, PC12 cells", "value": 78.4, "unit": "%"}, {"measurement": "OD value at 450 nm, Mean ± SD", "setting": "PC12 cells [1]; compound 0.1 μmol/L, 2 h, then okadaic acid 50 nmol/L, 24 h, PC12 cells", "value": "0.652 ± 0.018"}, {"measurement": "OD value at 450 nm, Mean ± SD", "setting": "PC12 cells [1]; compound 0.5 μmol/L, 2 h, then okadaic acid 50 nmol/L, 24 h, PC12 cells", "value": "0.676 ± 0.016"}, {"measurement": "OD value at 450 nm, Mean ± SD", "setting": "PC12 cells [1]; compound 1 μmol/L, 2 h, then okadaic acid 50 nmol/L, 24 h, PC12 cells", "value": "0.787 ± 0.028"}, {"measurement": "OD value at 450 nm, Mean ± SD", "setting": "PC12 cells [1]; compound 5 μmol/L, 2 h, then okadaic acid 50 nmol/L, 24 h, PC12 cells", "value": "0.92 ± 0.008 and 0.967 ± 0.018"}, {"measurement": "Survival rate %", "setting": "PC12 cells [1]; compound 5 μmol/L, 2 h, then okadaic acid 50 nmol/L, 24 h, PC12 cells, 1440 min, 5 µM", "value": 72.93, "unit": "%"}, {"measurement": "OD value at 450 nm, Mean ± SD", "setting": "PC12 cells [1]; compound 10 μmol/L, 2 h, then okadaic acid 50 nmol/L, 24 h, PC12 cells", "value": "1.04 ± 0.017"}, {"measurement": "survival rate compared with okadaic acid model group", "setting": "PC12 cells [1]; compound 0.1 and 0.5 μmol/L", "value": "no statistical difference (P>0.05)"}, {"measurement": "survival rate compared with okadaic acid model group", "setting": "PC12 cells [1]; compound 1, 5 and 10 μmol/L", "value": "significant statistical differences (P<0.01)"}, {"measurement": "PP2A (Western Blot signal)", "setting": "PP2A [2]; [6]", "value": 1025.7}, {"measurement": "PP2A protein expression level, β-actin(%)", "setting": "PP2A [2]; [6]", "value": 31.24, "unit": "%"}, {"measurement": "PP2A (Western Blot signal)", "setting": "PP2A [2]; [7]", "value": 1129.7}, {"measurement": "PP2A protein expression level, β-actin(%)", "setting": "PP2A [2]; [7]", "value": 33.18, "unit": "%"}, {"measurement": "PP2A (Western Blot signal)", "setting": "PP2A [2]; compound 1 μmol/L, PC12 cells", "value": 1180.1}, {"measurement": "PP2A protein expression level, β-actin(%)", "setting": "PP2A [2]; compound 1 μmol/L, PC12 cells", "value": 33.51, "unit": "%"}, {"measurement": "PP2A (Western Blot signal)", "setting": "PP2A [2]; compound 5 μmol/L, PC12 cells", "value": 1284.7}, {"measurement": "PP2A protein expression level, β-actin(%)", "setting": "PP2A [2]; compound 5 μmol/L, PC12 cells", "value": 35.61, "unit": "%"}, {"measurement": "PP2A (Western Blot signal)", "setting": "PP2A [2]; compound 10 μmol/L, PC12 cells", "value": 2192.1}, {"measurement": "PP2A protein expression level, β-actin(%)", "setting": "PP2A [2]; compound 10 μmol/L, PC12 cells (normal cells 58.95%)", "value": 58.59, "unit": "%"}, {"measurement": "effect on PP2A protein expression level", "setting": "PP2A [2]; compound 10 μmol/L, PC12 cells", "value": "can significantly increase the PP2A protein expression level"}, {"measurement": "effect on PP2A protein expression level", "setting": "PP2A [2]; compound 0.1, 0.5, 1 and 5 μmol/L, PC12 cells", "value": "can increase the PP2A protein expression level in PC12 cells that is reduced due to Aβ, in a specific dose-effect relationship"}, {"measurement": "PP2A (Western Blot signal)", "setting": "PP2A [3]; compound 1 μmol/L", "value": 557.1}, {"measurement": "PP2A(%)", "setting": "PP2A [3]; compound 1 μmol/L", "value": 14, "unit": "%"}, {"measurement": "PP2A (Western Blot signal)", "setting": "PP2A [3]; compound 5 μmol/L", "value": 688.01}, {"measurement": "PP2A(%)", "setting": "PP2A [3]; compound 5 μmol/L", "value": 18, "unit": "%"}, {"measurement": "PP2A (Western Blot signal)", "setting": "PP2A [3]; compound 10 μmol/L", "value": 1130.4}, {"measurement": "PP2A(%)", "setting": "PP2A [3]; compound 10 μmol/L", "value": 29, "unit": "%"}, {"measurement": "effect on the PP2A expression level", "setting": "PP2A [3]; compound 1, 5 and 10 μmol/L, compared with okadaic acid only", "value": "can significantly increase the PP2A expression level dose-dependently"}, {"measurement": "viability at 0.1 µM", "setting": "PC12 cells [4]; Rattus norvegicus, PC-12, 24 h", "value": 50.7, "unit": "%"}, {"measurement": "viability at 0.5 µM", "setting": "PC12 cells [4]; Rattus norvegicus, PC-12, 24 h", "value": 50.6, "unit": "%"}, {"measurement": "viability at 1 µM", "setting": "PC12 cells [4]; Rattus norvegicus, PC-12, 24 h", "value": 55.7, "unit": "%"}, {"measurement": "viability at 5 µM", "setting": "PC12 cells [4]; Rattus norvegicus, PC-12, 24 h", "value": 68.3, "unit": "%"}, {"measurement": "viability at 10 µM", "setting": "PC12 cells [4]; Rattus norvegicus, PC-12, 24 h", "value": 79.1, "unit": "%"}, {"measurement": "OD value at 450 nm, Mean ± SD", "setting": "PC12 cells [4]; compound 0.1 μmol/L", "value": "0.699 ± 0.027"}, {"measurement": "OD value at 450 nm, Mean ± SD", "setting": "PC12 cells [4]; compound 0.5 μmol/L", "value": "0.698 ± 0.024"}, {"measurement": "OD value at 450 nm, Mean ± SD", "setting": "PC12 cells [4]; compound 1 μmol/L", "value": "0.768 ± 0.015"}, {"measurement": "OD value at 450 nm, Mean ± SD", "setting": "PC12 cells [4]; compound 5 μmol/L", "value": "0.941 ± 0.018"}, {"measurement": "OD value at 450 nm, Mean ± SD", "setting": "PC12 cells [4]; compound 10 μmol/L", "value": "1.09 ± 0.026"}, {"measurement": "survival rate compared with Aβ1-42 model group", "setting": "PC12 cells [4]; compound 0.1 and 0.5 μmol/L", "value": "no statistical difference (P>0.05)"}, {"measurement": "survival rate compared with Aβ1-42 model group", "setting": "PC12 cells [4]; compound 1, 5 and 10 μmol/L", "value": "statistical differences (P<0.01)"}, {"measurement": "okadaic acid-induced phosphorylation of tau protein", "setting": "[5]; compared with okadaic acid only", "value": "can significantly inhibit okadaic acid-induced phosphorylation of tau protein in cells"}, {"measurement": "p-tauSer396 level (%)", "setting": "[5]; compound 0.1 μmol/L, n = 3", "value": "0.761 ± 0.008", "unit": "%"}, {"measurement": "p-tauSer396 level (%)", "setting": "[5]; compound 0.3 μmol/L, n = 3", "value": "0.663 ± 0.027", "unit": "%"}, {"measurement": "change of p-tauSer396 level", "setting": "[5]; compound 1.0 μmol/L and 3.0 μmol/L", "value": "decreases significantly (P<0.05)"}, {"measurement": "p-tauSer396 level (%)", "setting": "[5]; compound 1.0 μmol/L, n = 3, P<0.05 vs negative control", "value": "0.557 ± 0.013", "unit": "%"}, {"measurement": "p-tauSer396 level (%)", "setting": "[5]; compound 3.0 μmol/L, n = 3, P<0.05 vs negative control", "value": "0.578 ± 0.025", "unit": "%"}, {"measurement": "change of p-tauSer396 level", "setting": "[5]; compound 10 μmol/L", "value": "decreases significantly (P<0.01)"}, {"measurement": "p-tauSer396 level (%)", "setting": "[5]; compound 10 μmol/L, n = 3, P<0.01 vs negative control", "value": "0.522 ± 0.016", "unit": "%"}]}]}
